Our source for the EC50 values is publication PMC11234710, “Comparison of a novel potentiator of CFTR channel activity to ivacaftor in ameliorating mucostasis caused by cigarette smoke in primary human bronchial airway epithelial cells” (Respiratory Research, 2024).

For the assay, the target named is F508del-CFTR (Homo sapiens, UniProt P13569, DEL508-508). Briefly: fluorescence membrane potential assay in HEK-293 cells expressing F508del-CFTR, […] °C, forskolin activated. Type of assay: cell-based.
Chain of F508del-CFTR (P13569 with tags, fused parts or gaps DEL508-508): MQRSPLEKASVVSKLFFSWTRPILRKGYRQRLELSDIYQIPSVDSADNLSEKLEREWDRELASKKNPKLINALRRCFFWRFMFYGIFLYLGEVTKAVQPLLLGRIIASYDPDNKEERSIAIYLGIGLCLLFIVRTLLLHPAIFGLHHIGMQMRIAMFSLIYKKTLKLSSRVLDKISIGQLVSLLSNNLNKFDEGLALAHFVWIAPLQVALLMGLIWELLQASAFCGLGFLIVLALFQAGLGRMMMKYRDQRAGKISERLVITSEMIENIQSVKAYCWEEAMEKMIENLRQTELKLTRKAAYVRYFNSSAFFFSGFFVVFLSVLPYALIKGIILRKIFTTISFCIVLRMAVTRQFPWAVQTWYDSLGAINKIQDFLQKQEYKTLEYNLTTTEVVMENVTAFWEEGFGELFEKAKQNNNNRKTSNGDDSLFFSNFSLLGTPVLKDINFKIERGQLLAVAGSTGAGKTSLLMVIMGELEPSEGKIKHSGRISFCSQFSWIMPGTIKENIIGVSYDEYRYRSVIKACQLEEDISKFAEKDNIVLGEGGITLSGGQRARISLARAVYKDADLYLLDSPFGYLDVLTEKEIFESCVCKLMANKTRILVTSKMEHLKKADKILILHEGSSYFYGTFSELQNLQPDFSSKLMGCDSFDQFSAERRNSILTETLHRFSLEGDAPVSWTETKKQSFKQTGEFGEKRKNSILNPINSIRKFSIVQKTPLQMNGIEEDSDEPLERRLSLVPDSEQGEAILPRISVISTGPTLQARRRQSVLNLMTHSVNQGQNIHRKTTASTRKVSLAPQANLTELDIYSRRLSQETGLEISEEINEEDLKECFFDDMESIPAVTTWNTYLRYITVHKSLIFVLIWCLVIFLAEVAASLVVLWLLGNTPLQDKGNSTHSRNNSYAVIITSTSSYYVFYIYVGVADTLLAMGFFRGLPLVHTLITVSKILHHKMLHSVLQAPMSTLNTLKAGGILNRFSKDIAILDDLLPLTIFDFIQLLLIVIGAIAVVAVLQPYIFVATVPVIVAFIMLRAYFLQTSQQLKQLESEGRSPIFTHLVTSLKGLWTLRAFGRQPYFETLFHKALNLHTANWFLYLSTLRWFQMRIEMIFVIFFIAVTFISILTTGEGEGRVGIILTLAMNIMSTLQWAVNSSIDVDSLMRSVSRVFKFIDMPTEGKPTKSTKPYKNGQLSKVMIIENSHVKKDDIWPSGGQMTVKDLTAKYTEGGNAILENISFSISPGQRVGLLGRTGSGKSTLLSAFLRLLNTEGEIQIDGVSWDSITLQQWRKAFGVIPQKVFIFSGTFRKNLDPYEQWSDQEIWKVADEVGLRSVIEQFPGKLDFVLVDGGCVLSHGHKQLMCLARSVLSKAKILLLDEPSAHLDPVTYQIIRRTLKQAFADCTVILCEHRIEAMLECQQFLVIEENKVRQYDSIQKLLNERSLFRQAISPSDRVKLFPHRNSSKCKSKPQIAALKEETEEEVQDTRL

A word on the EC50: it is the concentration giving half of the maximal effect. As for `CC(C)(C)c1cc(C(C)(C)C)c(NC(=O)c2c[nH]c3ccccc3c2=O)cc1O` [VX-770], a half-maximal effect (EC50) was put at 384 nM.
